The test has as its system P335 leukemia ip, BDF1 mice, survival T/C %. Put plainly: NCI In Vivo Anticancer Drug Screen. Data for tumor model P335 Leukemia (intraperitoneal) in B6D2F1 (BDF1) mice. The settings on record: endpoint: mean survival time, higher = longer survival. The method, then: The antitumor activity of compounds was measured in mice bearing transplantable tumors. Survival or tumor size were measured and the results are expressed as the measurement made in the treated group (T) divided by the measurement made in the vehicle treated control group (C). The tumor model used in this assay is P335 Leukemia (intraperitoneal) in B6D2F1 (BDF1) mice

Where [1] appears, read: dose: 12.5 mg/kg/injection, schedule: Q01DX Z (ip), vehicle: saline.
Setting [2] is: dose: 100.0 mg/kg/injection, schedule: Q01DX Z (ip), vehicle: saline.
Where [3] appears, read: dose: 6.25 mg/kg/injection, schedule: Q01DX Z (ip), vehicle: carboxymethylcellulose (CMC).

Several values for one entry are separate records, joined by “and”; a condition that tells them apart may be missing. Equal entries are not always repeated. Toxic doses and inconclusive results are not listed. Starred links: 1 amine or outer side, 2 acyl side, 3 side chain; linkers in the order of their positions; H or OH if unused. Positions of bridges follow the written chain, without caps; N, C: chain ends. Non-standard residues stand in square brackets, D forms with d. Residues, ends and D or L forms follow the SMILES beside them. Chains are numbered I, II in the order given. Actinocin(9to1) = Cc1c2oc3c(C)ccc(C(=O)[*:1])c3nc-2c(C(=O)[*:2])c(N)c1=O; aThr = C[C@H](O)[C@H](N)C(=O)O; NMeV = CN[C@H](C(=O)O)C(C)C; Sar = CNCC(=O)O

In the case of `O=c1cnn(C2OC(CO)C(O)C2O)c(=O)[nH]1` (stereo not drawn), the T/C (dose: 0.98 mg/kg/injection, schedule: Q01DX Z (ip), vehicle: water) was 102 % of control; the T/C (dose: 1.0 mg/kg/injection, schedule: Q01DX Z (ip), vehicle: water) was 95 % of control; the T/C (dose: 1.95 mg/kg/injection, schedule: Q01DX Z (ip), vehicle: water) is 115 % of control; the T/C (dose: 2.0 mg/kg/injection, schedule: Q01DX Z (ip), vehicle: water) is 98 % of control; the T/C (dose: 3.9 mg/kg/injection, schedule: Q01DX Z (ip), vehicle: water) is 105 % of control; the T/C (dose: 7.8 mg/kg/injection, schedule: Q01DX Z (ip), vehicle: water) is 112 % of control. Further, the T/C was 93 % of control (dose: 8.0 mg/kg/injection, schedule: Q01DX Z (ip), vehicle: water); 152 % of control (dose: 15.6 mg/kg/injection, schedule: Q01DX Z (ip), vehicle: water); 101 % of control (dose: 250.0 mg/kg/injection, schedule: Q01DX Z (ip), vehicle: water); 104 % of control (dose: 500.0 mg/kg/injection, schedule: Q01DX Z (ip), vehicle: water); 112 % of control (dose: 1000.0 mg/kg/injection, schedule: Q01DX Z (ip), vehicle: water).

In the case of `CN(N=O)C(=O)NC(C=O)C(O)C(O)C(O)CO` (stereo not drawn), the T/C runs as follows: (dose: 6.25 mg/kg/injection, schedule: Q01DX Z (ip), vehicle: saline) 96 % of control; under setting [1], 112 % of control; (dose: 25.0 mg/kg/injection, schedule: Q01DX Z (ip), vehicle: saline) 113 % of control; under setting [2], 151 % of control.

Consider `C[C@]12C=CC(=O)C=C1CC[C@@H]1[C@@H]2[C@@H](O)C[C@@]2(C)[C@H]1CC[C@]2(O)C(=O)CO`, for which the T/C was 97 % of control (dose: 2.0 mg/kg/injection, schedule: Q01DX Z (sc), vehicle: steriod suspending solution); 103 % of control and 111 % of control (dose: 4.0 mg/kg/injection, schedule: Q01DX Z (sc), vehicle: steriod suspending solution); 101 % of control and 117 % of control (dose: 8.0 mg/kg/injection, schedule: Q01DX Z (sc), vehicle: steriod suspending solution); 95 % of control and 117 % of control (dose: 16.0 mg/kg/injection, schedule: Q01DX Z (sc), vehicle: steriod suspending solution); 95 % of control (dose: 32.0 mg/kg/injection, schedule: Q01DX Z (sc), vehicle: steriod suspending solution).

Take `O=c1[nH]cc(F)c(=O)[nH]1`: the T/C is 103 % of control (dose: 0.78 mg/kg/injection, schedule: Q01DX Z (ip), vehicle: saline); 123 % of control (dose: 2.34 mg/kg/injection, schedule: Q01DX Z (ip), vehicle: saline); 118 % of control (dose: 4.68 mg/kg/injection, schedule: Q01DX Z (ip), vehicle: saline); 113 % of control (dose: 9.35 mg/kg/injection, schedule: Q01DX Z (ip), vehicle: saline); 100 % of control under setting [1]; 108 % of control (dose: 18.7 mg/kg/injection, schedule: Q01DX Z (ip), vehicle: saline). Besides, the T/C under setting [2] is 93 % of control.

In the case of `O=C(O)CCCc1ccc(N(CCCl)CCCl)cc1`, the T/C was 89 % of control under setting [3] and 89 % of control (dose: 12.5 mg/kg/injection, schedule: Q01DX Z (ip), vehicle: carboxymethylcellulose (CMC)).

Regarding `Cc1c2oc3c(C)ccc(C(=O)N[C@@H]4C(=O)N[C@H](C(C)C)C(=O)N5CCC[C@H]5C(=O)N(C)CC(=O)N(C)[C@@H](C(C)C)C(=O)O[C@H]4C)c3nc-2c(C(=O)N[C@@H]2C(=O)N[C@H](C(C)C)C(=O)N3CCC[C@H]3C(=O)N(C)CC(=O)N(C)[C@@H](C(C)C)C(=O)O[C@H]2C)c(N)c1=O` (I: [aThr][dV]P[Sar][NMeV] / II: [aThr][dV]P[Sar][NMeV]; ester I:1-I:C, II:1-II:C; linker I:N-II:N via Actinocin(9to1)), the T/C (dose: 0.8 micrograms/kg/injection, schedule: Q01DX Z (ip), vehicle: saline) is 106 % of control; the T/C (dose: 1.6 micrograms/kg/injection, schedule: Q01DX Z (ip), vehicle: saline) is 106 % of control; the T/C (dose: 2.5 micrograms/kg/injection, schedule: Q01DX Z (ip), vehicle: saline) is 96 % of control; the T/C (dose: 4.9 micrograms/kg/injection, schedule: Q01DX Z (ip), vehicle: saline) is 102 % of control; the T/C (dose: 6.4 micrograms/kg/injection, schedule: Q01DX Z (ip), vehicle: saline) is 120 % of control; the T/C (dose: 9.8 micrograms/kg/injection, schedule: Q01DX Z (ip), vehicle: saline) is 98 % of control. The T/C is 88 % of control (dose: 19.5 micrograms/kg/injection, schedule: Q01DX Z (ip), vehicle: saline); 122 % of control (dose: 38.9 micrograms/kg/injection, schedule: Q01DX Z (ip), vehicle: saline); 115 % of control (dose: 51.2 micrograms/kg/injection, schedule: Q01DX Z (ip), vehicle: saline); 103 % of control (dose: 102.4 micrograms/kg/injection, schedule: Q01DX Z (ip), vehicle: saline).

`CC(=O)O[C@]1(C(C)=O)CC[C@H]2[C@@H]3C[C@H](C)C4=CC(=O)C=C[C@]4(C)[C@@]3(F)[C@@H](O)C[C@@]21C`: the T/C was 107 % of control (dose: 0.63 mg/kg/injection, schedule: Q01DX Z (sc), vehicle: steriod suspending solution); 98 % of control (dose: 1.25 mg/kg/injection, schedule: Q01DX Z (sc), vehicle: steriod suspending solution); 103 % of control (dose: 2.5 mg/kg/injection, schedule: Q01DX Z (sc), vehicle: steriod suspending solution); 90 % of control (dose: 5.0 mg/kg/injection, schedule: Q01DX Z (sc), vehicle: steriod suspending solution); 119 % of control (dose: 10.0 mg/kg/injection, schedule: Q01DX Z (sc), vehicle: steriod suspending solution); 87 % of control (dose: 20.0 mg/kg/injection, schedule: Q01DX Z (sc), vehicle: steriod suspending solution).

Regarding `O=c1[nH]c(=O)n(C2CC(O)C(CO)O2)cc1I` (stereo not drawn), the T/C is, setting by setting: (dose: 225.0 mg/kg/injection, schedule: Q01DX Z (ip), vehicle: carboxymethylcellulose (CMC)) 93 % of control; (dose: 450.0 mg/kg/injection, schedule: Q01DX Z (ip), vehicle: carboxymethylcellulose (CMC)) 104 % of control.

In the case of `CSc1ncnc2c1ncn2C1OC(CO)C(O)C1O` (stereo not drawn), the T/C reads like this: (dose: 3.1 mg/kg/injection, schedule: Q01DX Z (ip), vehicle: carboxymethylcellulose (CMC)) 93 % of control; under setting [3], 110 % of control; (dose: 25.0 mg/kg/injection, schedule: Q01DX Z (ip), vehicle: carboxymethylcellulose (CMC)) 179 % of control; (dose: 50.0 mg/kg/injection, schedule: Q01DX Z (ip), vehicle: carboxymethylcellulose (CMC)) 104 % of control.

With `C[C@]12CCC(=O)C=C1CC[C@@H]1[C@@H]2C(=O)C[C@@]2(C)[C@H]1CC[C@]2(O)C(=O)CO`, the T/C is 111 % of control (dose: 3.9 mg/kg/injection, schedule: Q01DX Z (sc), vehicle: steriod suspending solution); 101 % of control (dose: 31.25 mg/kg/injection, schedule: Q01DX Z (sc), vehicle: steriod suspending solution); 94 % of control (dose: 250.0 mg/kg/injection, schedule: Q01DX Z (sc), vehicle: steriod suspending solution).

In the case of `O[C@H](CN1CC1)[C@@H](O)CN1CC1`, the T/C reads like this: (dose: 1.8 micrograms/kg/injection, schedule: Q01DX Z (ip), vehicle: carboxymethylcellulose (CMC)) 95 % of control; (dose: 3.7 micrograms/kg/injection, schedule: Q01DX Z (ip), vehicle: carboxymethylcellulose (CMC)) 111 % of control; (dose: 7.5 micrograms/kg/injection, schedule: Q01DX Z (ip), vehicle: carboxymethylcellulose (CMC)) 119 % of control; (dose: 15.0 micrograms/kg/injection, schedule: Q01DX Z (ip), vehicle: carboxymethylcellulose (CMC)) 109 % of control.

Turning to `Clc1ncnc2nc[nH]c12`, the T/C (dose: 8.0 mg/kg/injection, schedule: Q01DX Z (ip), vehicle: carboxymethylcellulose (CMC)) is 89 % of control; the T/C (dose: 16.0 mg/kg/injection, schedule: Q01DX Z (ip), vehicle: carboxymethylcellulose (CMC)) was 101 % of control; the T/C (dose: 31.0 mg/kg/injection, schedule: Q01DX Z (ip), vehicle: carboxymethylcellulose (CMC)) is 89 % of control; the T/C (dose: 31.25 mg/kg/injection, schedule: Q01DX Z (ip), vehicle: carboxymethylcellulose (CMC)) was 110 % of control; the T/C (dose: 62.5 mg/kg/injection, schedule: Q01DX Z (ip), vehicle: carboxymethylcellulose (CMC)) was 101 % of control; the T/C (dose: 125.0 mg/kg/injection, schedule: Q01DX Z (ip), vehicle: carboxymethylcellulose (CMC)) is 110 % of control.

For `CN(C)c1ccc(/C=C\c2ccnc3ccccc23)cc1`, the T/C runs as follows: (dose: 0.8 mg/kg/injection, schedule: Q01DX Z (ip), vehicle: water) 100 % of control; (dose: 1.6 mg/kg/injection, schedule: Q01DX Z (ip), vehicle: water) 98 % of control; (dose: 3.1 mg/kg/injection, schedule: Q01DX Z (ip), vehicle: water) 102 % of control; (dose: 6.2 mg/kg/injection, schedule: Q01DX Z (ip), vehicle: water) 109 % of control.
